# Test results: patent US8119589B2, “Modulation of CD4+ T cell responses by a tick saliva protein, Salp15 and polypeptides derived therefrom” (University of North Carolina at Charlotte, priority 2004, dated 2012)
# Legend:
# [1] = tested on: CD4+ T cells; assay: Lipid raft redistribution (CTB594 staining, receptor capping) in activated CD4+ T cells; assay type: cell-based, mouse; conditions: Salp15 treatment prior to anti-CD3/CD28 stimulation, murine cells
# Protocol: Naïve CD4+ T cells from C3H/HeN, Balb/c, and B10.BR mice were purified as previously described (Anguita et al., 2002). CD4+ T cells were preincubated in Click's modified Bruff's Medium (Sigma Chemical Co., St. Louis, Mo., U.S.A.) for 10 minutes at 37° C. with and without Salp15 (50 μg/mL) and stimulated for 20 min or the indicated times at 37° C. with 10 μg/mL of anti-CD3ε, 1 μg/mL of anti-CD28, and 10 μg/mL of anti-armenian and syrian hamster IgG (BD Biosciences Pharmingen, San Jose, Calif., U.S.A.). Jurkat (E6-1) cells were stimulated using 5 μg/mL of OKT3 mAb (eBioscience, San Diego, Calif., U.S.A.) and 1 μg/mL of anti-human CD28 cross linked with 5 μg/mL anti-mouse IgG for the indicated times.
# (§1) For the visualization of lipid rafts, phospho-tyrosine, and cytoskeleton reorganization, CD4^+, CD8^+ or Jurkat cells were cytospun for 10 minutes at 1000 RPM onto positively charged microslides (Fisher Scientific, Hampton, N.H., U.S.A.). The cells were fixed with 3.7% paraformaldehyde (Sigma Chemical Co.) for 15 minutes and stained with CTB594 (Molecular Probes, Eugene, Oreg., U.S.A.), AlexaFluor488 labeled phalloidin (Molecular Probes) or (1:50) biotin-conjugated anti-p-Tyr (PY99) followed by Streptavidin-AlexaFluor594 (1:100, Molecular Probes). For p-LAT and p-PLCγ1 staining, fixed cells were treated with PBS containing 0.1% Triton-X 100 and 100 mM glycine for 15 min at room temperature and stained using rabbit p-LAT (Tyr^191) or rabbit anti-p-PLCγ1 (Tyr^783) probed with anti-rabbit IgG488 (Molecular Probes).
# (§2) For receptor capping studies, mouse primary B and CD11^+ cells were purified by positive selection using biotin anti-mouse CD45R/B220 clone RA3-6B2 and biotin anti-mouse CD11b clone M1/70 (BD Biosciences Pharmingen) respectively, followed by incubation with magnetic microbeads. The cells were analyzed for receptor capping using 25 μg/mL anti-mouse IgM and 25 μg/mL anti-mouse CD16/CD32 respectively, cross-linked with 25 μg/mL of anti-rat IgG594 for 10 min in the presence or absence of 50 μg/mL of Salp15. […]
# [2] = tested on: CD8+ T cells; assay: Lipid raft reorganization (CTB594 staining) in anti-CD3/CD28 activated CD8+ T cells; assay type: cell-based, mouse; conditions: Salp15 pretreatment
# Protocol: as §1, §2
# [3] = tested on: CD8+ cells; assay: Salp15488 binding on cell surface by confocal microscopy; design: species or system mouse
# [4] = target: T1, CD4 on HeLa-CD4 cells (Homo sapiens, UniProt P01730); assay: Salp15488 binding to HeLa-CD4 and HeLa cells (flow cytometry, confocal microscopy)
# T1 construct: host or cells: HeLa
# Protocol: For colocalization experiments, Jurkat and CD4^+ T cells were cytospun as described herein. HeLa and HeLa-CD4 cells were grown on chamber slides. The cells were fixed and stained with anti-CD4 and Salp15 as follows. Purified Salp15 was labeled using Alexa-488 with the Protein Labeling Kit (Molecular Probes) according to the manufacturer's instructions. Fixed cells were blocked with 5% normal serum and anti-CD16/CD32 (1:100) in PBS, incubated with 1 μg of monoclonal biotinylated anti-CD4 (L3T4) (BD Biosciences Pharmingen) followed by streptavidin594 staining. The cells were then stained with 20 μg/mL of Salp15488. For competition assays, cells were first blocked with 5% normal serum, incubated with either polyclonal anti-CD4 antibody, MT310, OKT4, normal rabbit IgG, Salp15 (0.5 mg/mL) or lysozyme (0.5 mg/mL) followed by staining with Salp15488. All samples were mounted in a GVA Mount (Zymed, San Francisco, Calif., U.S.A.) and visualized with an Olympus Confocal microscope equipped with Fluoview 3.0 software.
# Actin polymerization assay was performed as described earlier (Krishnan et al., 2004). […] The cells were washed, resuspended in PBS and analyzed for F-actin content on a FACSCalibur with CellQuest software (Beckton Dickinson, Mountain View, Calif., U.S.A.). […] The cells were washed twice with PBS and analyzed by flow cytometry.
# [5] = target: T2, sCD4 (Homo sapiens, UniProt P01730); assay: Competition for sCD4-HRP binding to plate-bound P11
# T2 construct: the extracellular four domains of CD4 (sCD4); purchased Research Diagnostics Inc., Flanders, N.J., U.S.A
# Protocol: Purified sCD4 was coated overnight at 4° C. at the indicated concentrations in 0.1M sodium carbonate buffer (pH 9.5) in 96 well plates. Equimolar amounts of lysozyme were used as a non-specific control. The wells were washed, blocked with 10% FCS/PBS for 1 hr at R.T., and incubated with Salp15 (0.4 μM) for 2 hr at 37° C. Salp15 binding was detected by incubation with horseradish peroxidase (HRP)-conjugated anti-His antibody for 1 hr followed by microwell peroxidase substrate (KPL). The reaction was stopped by adding TMB stop solution (KPL). Chemically synthesized overlapping peptides of Salp15 were purchased from GenScript Corporation (Piscataway, N.J., U.S.A). To study the binding of Salp15 and peptides to sCD4, Salp15 (5 μg) and different peptides (0.5 μg) were coated. The wells were washed and blocked prior to incubation with sCD4-HRP (Research Diagnostics Inc., Flanders, N.J., U.S.A.). For competition assays, indicated concentrations of Salp15 or P11 were added to sCD4-HRP and incubated with plate bound P11 (0.1 μg). To estimate the effect of dithiothreitol (DTT) treatment of Salp15 on binding to sCD4, 0.5 μM Salp15 was treated with 10 mM DTT overnight and immobilized onto microtiter plate followed by blocking and incubation with sCD4-HRP.
substance,measurement,setting,value
"Salp15: secreted salivary protein from Ixodes scapularis, SEQ ID NO: 2; recombinant His-tagged, produced in Drosophila S2 cells",Lipid raft clustering,[1],reduced
same,Lipid raft reorganization,[2],unaffected
same,Staining of CD8+ cells,[3],no staining
same,Salp15 binding on untransfected HeLa cells,[4]; confocal microscopy,but not in untransfected cells
same,Salp15 binding to HeLa-CD4 cells compared to non-transfected controls,[4]; flow cytometry,increase
same,Competition of P11 binding to sCD4 by increasing concentrations of Salp15,[5],could also be competed
